Legend:
Conditions in all cases: 48 h
P12-Ichikawa [1] = assay: AUC of viability dose-response curve (% viability x log10 dose units); higher = less sensitive
Outline: (§1)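 Leukemia cells adapted to each medium were seeded at 500 or 1000 cells/well in 1536-well plates and dosed with library compounds in DMSO at 11 threefold doses from 47 μM to 0.79 nM for 48 h at 37°C. CellTiter-Glo One luminescence was normalised per plate to DMSO and cell-free wells, then fitted with a four-parameter log-logistic model over log10 doses. Area under the curve was taken from this fit by the trapezoidal rule, with curves above full viability scaled and curves failing quality control removed.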

SEM cells [2] = assay: as above
Outline: as §1

NOMO1 [3] = assay: as above
Outline: as §1

P12-Ichikawa [4] = assay: cell viability relative to DMSO control; higher = less cytotoxic
Outline: (§2)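 NOMO1 or SEM (500 cells/well) or P12-Ichikawa (1000 cells/well) leukemia cells were adapted for at least four passages in each medium. They were seeded in 1536-well plates (5 μl) and pin-dosed with library compounds in DMSO over an 11-point threefold series, 47 μM to 0.79 nM. CellTiter-Glo One luminescence was read after 48 h at 37°C. Viability is the per-plate percentage relative to DMSO wells, with cell-free wells as background.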

SEM cells [5] = assay: as above
Outline: as §2

NOMO1 [6] = assay: as above
Outline: as §2

C[S+](=O)([O-])Nc1ccc([N+](=O)[O-])cc1Oc1ccccc1
AUC of viability dose-response curve
Conditions | NOMO1 [3] | P12-Ichikawa [1] | SEM cells [2]
HPLM + 10% dialyzed FBS | 452 | 461 | 467
RPMI 5 mM glucose + 10% FBS | 465 | 456 | 449
RPMI 5 mM glucose + 10% dialyzed FBS | 464 | 460 | 464

cell viability [%]
Conditions | NOMO1 [6] | P12-Ichikawa [4] | SEM cells [5]
HPLM + 10% dialyzed FBS, 0.000781 µM | 121 | 114 | 95.8
HPLM + 10% dialyzed FBS, 0.00234 µM | 127 | 115 | 103
HPLM + 10% dialyzed FBS, 0.00702 µM | 118 | 111 | 99.8
HPLM + 10% dialyzed FBS, 0.0211 µM | 96.4 | 120 | 104
HPLM + 10% dialyzed FBS, 0.0632 µM | 121 | 112 | 117
HPLM + 10% dialyzed FBS, 0.19 µM | 116 | 115 | 121
HPLM + 10% dialyzed FBS, 0.569 µM | 122 | 118 | 107
HPLM + 10% dialyzed FBS, 1.71 µM | 107 | 109 | 104
HPLM + 10% dialyzed FBS, 5.12 µM | 103 | 109 | 107
HPLM + 10% dialyzed FBS, 15.4 µM | 101 | 102 | 109
HPLM + 10% dialyzed FBS, 46.1 µM | 70.8 | 59.4 | 62.9
RPMI 5 mM glucose + 10% FBS, 0.000781 µM | 109 | 122 | 88.4
RPMI 5 mM glucose + 10% FBS, 0.00234 µM | 98.4 | 121 | 111
RPMI 5 mM glucose + 10% FBS, 0.00702 µM | 104 | 120 | 98.6
RPMI 5 mM glucose + 10% FBS, 0.0211 µM | 110 | 119 | 90.5
RPMI 5 mM glucose + 10% FBS, 0.0632 µM | 108 | 120 | 106
RPMI 5 mM glucose + 10% FBS, 0.19 µM | 93.5 | 122 | 95.7
RPMI 5 mM glucose + 10% FBS, 0.569 µM | 104 | 116 | 108
RPMI 5 mM glucose + 10% FBS, 1.71 µM | 96.7 | 111 | 105
RPMI 5 mM glucose + 10% FBS, 5.12 µM | 101 | 116 | 103
RPMI 5 mM glucose + 10% FBS, 15.4 µM | 98.1 | 112 | 82.7
RPMI 5 mM glucose + 10% FBS, 46.1 µM | 60.6 | 28.5 | 17.2
RPMI 5 mM glucose + 10% dialyzed FBS, 0.000781 µM | 103 | 110 | 103
RPMI 5 mM glucose + 10% dialyzed FBS, 0.00234 µM | 116 | 108 | 112
RPMI 5 mM glucose + 10% dialyzed FBS, 0.00702 µM | 96 | 114 | 124
RPMI 5 mM glucose + 10% dialyzed FBS, 0.0211 µM | 112 | 113 | 110
RPMI 5 mM glucose + 10% dialyzed FBS, 0.0632 µM | 101 | 121 | 109
RPMI 5 mM glucose + 10% dialyzed FBS, 0.19 µM | 112 | 110 | 102
RPMI 5 mM glucose + 10% dialyzed FBS, 0.569 µM | 98.2 | 117 | 95.8
RPMI 5 mM glucose + 10% dialyzed FBS, 1.71 µM | 106 | 103 | 106
RPMI 5 mM glucose + 10% dialyzed FBS, 5.12 µM | 110 | 106 | 106
RPMI 5 mM glucose + 10% dialyzed FBS, 15.4 µM | 112 | 103 | 104
RPMI 5 mM glucose + 10% dialyzed FBS, 46.1 µM | 47.1 | 48.7 | 54.3

CNC(=O)c1ccc(N2C(=S)N(c3cnc(C#N)c(C(F)(F)F)c3)C(=O)C23CCC3)cc1F
AUC of viability dose-response curve
Conditions | NOMO1 [3] | P12-Ichikawa [1] | SEM cells [2]
HPLM + 10% dialyzed FBS | 419 | 470 | 447
RPMI 5 mM glucose + 10% FBS | 426 | 463 | 452
RPMI 5 mM glucose + 10% dialyzed FBS | 439 | 467 | 457

cell viability [%]
Conditions | NOMO1 [6] | P12-Ichikawa [4] | SEM cells [5]
HPLM + 10% dialyzed FBS, 0.000781 µM | 79.6 | 94.2 | 92.3
HPLM + 10% dialyzed FBS, 0.00234 µM | 114 | 109 | 88.8
HPLM + 10% dialyzed FBS, 0.00702 µM | 103 | 109 | 80.1
HPLM + 10% dialyzed FBS, 0.0211 µM | 115 | 109 | 103
HPLM + 10% dialyzed FBS, 0.0632 µM | 110 | 112 | 76.8
HPLM + 10% dialyzed FBS, 0.19 µM | 116 | 111 | 95.6
HPLM + 10% dialyzed FBS, 0.569 µM | 102 | 111 | 105
HPLM + 10% dialyzed FBS, 1.71 µM | 89.8 | 114 | 98
HPLM + 10% dialyzed FBS, 5.12 µM | 69.7 | 109 | 107
HPLM + 10% dialyzed FBS, 15.4 µM | 64.8 | 95 | 101
HPLM + 10% dialyzed FBS, 46.1 µM | 50.2 | 96.3 | 95.2
RPMI 5 mM glucose + 10% FBS, 0.000781 µM | 84.9 | 86.7 | 83.9
RPMI 5 mM glucose + 10% FBS, 0.00234 µM | 113 | 95.7 | 94.1
RPMI 5 mM glucose + 10% FBS, 0.00702 µM | 111 | 97.5 | 90.7
RPMI 5 mM glucose + 10% FBS, 0.0211 µM | 104 | 106 | 93.6
RPMI 5 mM glucose + 10% FBS, 0.0632 µM | 105 | 109 | 97.1
RPMI 5 mM glucose + 10% FBS, 0.19 µM | 111 | 107 | 92.7
RPMI 5 mM glucose + 10% FBS, 0.569 µM | 96.3 | 117 | 94.8
RPMI 5 mM glucose + 10% FBS, 1.71 µM | 83.4 | 113 | 101
RPMI 5 mM glucose + 10% FBS, 5.12 µM | 79 | 111 | 98.3
RPMI 5 mM glucose + 10% FBS, 15.4 µM | 73.2 | 92.8 | 98.6
RPMI 5 mM glucose + 10% FBS, 46.1 µM | 60.2 | 96.1 | 93.9
RPMI 5 mM glucose + 10% dialyzed FBS, 0.000781 µM | 88 | 90.5 | 82.6
RPMI 5 mM glucose + 10% dialyzed FBS, 0.00234 µM | 109 | 111 | 95.3
RPMI 5 mM glucose + 10% dialyzed FBS, 0.00702 µM | 107 | 118 | 85.3
RPMI 5 mM glucose + 10% dialyzed FBS, 0.0211 µM | 104 | 118 | 91.5
RPMI 5 mM glucose + 10% dialyzed FBS, 0.0632 µM | 99.1 | 118 | 114
RPMI 5 mM glucose + 10% dialyzed FBS, 0.19 µM | 121 | 119 | 100
RPMI 5 mM glucose + 10% dialyzed FBS, 0.569 µM | 123 | 116 | 97.8
RPMI 5 mM glucose + 10% dialyzed FBS, 1.71 µM | 104 | 123 | 98.2
RPMI 5 mM glucose + 10% dialyzed FBS, 5.12 µM | 73.3 | 126 | 96.8
RPMI 5 mM glucose + 10% dialyzed FBS, 15.4 µM | 74 | 128 | 93.3
RPMI 5 mM glucose + 10% dialyzed FBS, 46.1 µM | 74.2 | 101 | 108

Source: the supplement of paper PMC11451515
